According to patent publication US20060052456A1, “Kynurenine 3-hydroxylase inhibitors for the treatment of diabetes by increasing the number of islets of langerhans cells” (MERCK PATENT GMBH, priority 2003, published 2006):

Assays:
[1] = tested on: perfused isolated pancreases from N0 STZ diabetic rats; assay: Secretion of insulin and glucagon in perfused isolated pancreases from N0 STZ diabetic rats; type: cell-based; conditions: perfused diabetic rat pancreas; absence of glucose, then 16.5 mM glucose; glucose-dependent
Excerpt: The results are expressed as the mean ±SEM (standard error of mean) of several experiments. The statistical test used is the Scheffé test.

hepatocytes = assay: Hepatic glucose production in vitro in isolated hepatocytes (Table IV); type: cell-based, Wistar rats; conditions: for inhibition of hepatic glucose production in vitro (in words): isolated rat hepatocytes
Description: The following two methods were used:
1) The hepatocytes are cultured for 16 to 18 hours in DMEM medium in the presence of AMP cyclase/dexamethasone at respective concentrations of 5×10^−5 M and 5×10^−7 M, with preincubation of the products at the test doses. After washing in pH 7.4 PBS buffer, the cells are incubated for three hours at 37° C. in a Krebs/AMPc/DEX buffer at the abovementioned concentrations. 0.1 μM insulin is used as reference substance. Two identical experiments are performed (Table III-1).
After washing in pH 7.4 PBS buffer, the cells are incubated for two hours at 37° C. in a Krebs buffer free of glucose and of insulin, containing lactate/pyruvate (10/1 mM) in the presence or absence of the test compounds. 10 μM MICA (5-methoxyindole-2-carboxylic acid) is used as reference substance. Two identical experiments are performed (Table III-2).
The protein assay is performed on the rest of the incubation medium via the Lowry method (BIO-RAD Dc protein assay, BIO-RAD 5000116).
The results are expressed as nmoles of glucose produced per […] of proteins. The statistical test used is the t test.

**Q.** For `COc1ccc(C(=O)CC(Sc2ccc(C)cc2)C(=O)O)cc1` (stereo not drawn) [Ih-20, 2-(4′-methylphenylthio)-4-(4′-methoxyphenyl)-4-oxobutanoic acid], which melting point is on record?
**A.** 137 to 141 °C

**Q.** For `COc1ccc(SC(CC(=O)c2ccc(OC)cc2)C(=O)O)cc1` (stereo not drawn) [Ih-21, 2-(4′-methoxyphenylthio)-4-(4′-methoxyphenyl)-4-oxobutanoic acid], which melting point is on record?
**A.** 137 to 140 °C

**Q.** For `COc1ccc(C(=O)CC(SC2CCCCC2)C(=O)O)cc1` (stereo not drawn) [Ih-23, 2-cyclohexylthio-4-(4′-methoxyphenyl)-4-oxobutanoic acid], which melting point is on record?
**A.** 120 to 122 °C

**Q.** For `COc1ccc(C(=O)CC(SCc2ccccc2)C(=O)O)cc1` (stereo not drawn) [Ih-24, 2-benzylthio-4-(4′-methoxyphenyl)-4-oxobutanoic acid], which melting point is on record?
**A.** 105 to 109 °C

**Q.** With `O=C(CC(Sc1ccccc1)C(=O)O)c1ccc(Cl)cc1` (stereo not drawn) [Ih-25, 2-phenylthio-4-(4′-chlorophenyl)-4-oxobutanoic acid] as the compound, how does the melting point read?
**A.** 166 to 169 °C

**Q.** For `O=C(CC(Sc1ccc(F)cc1)C(=O)O)c1ccc(Cl)cc1` (stereo not drawn) [Ih-26, 2-(4′-fluorophenylthio)-4-(4′-chlorophenyl)-4-oxobutanoic acid], which melting point is on record?
**A.** 140 to 141 °C

**Q.** With `O=C(CC(C(=O)O)c1ccc(Cl)cc1)c1ccc(Cl)cc1` (stereo not drawn) [Ih-27, 2-(4′-chlorophenyl)-4-(4′-chlorophenyl)-4-oxobutanoic acid] as the compound, how does the melting point read?
**A.** 154 to 156 °C

**Q.** Which melting point does the source give for `Cc1ccc(SC(CC(=O)c2ccc(Cl)cc2)C(=O)O)cc1` (stereo not drawn) [Ih-28, 2-(4′-methylphenylthio)-4-(4′-chlorophenyl)-4-oxobutanoic acid] here?
**A.** 151 to 153 °C

**Q.** With `COc1ccc(SC(CC(=O)c2ccc(Cl)cc2)C(=O)O)cc1` (stereo not drawn) [Ih-29, 2-(4′-methoxyphenylthio)-4-(4′-chlorophenyl)-4-oxobutanoic acid] as the compound, how does the melting point read?
**A.** 117 to 119 °C

**Q.** What does the source list for `O=C(O)c1cc(=O)c2ccccc2[nH]1` [Kynurenic acid]?
**A.** glucagon secretion (in words) [1]: stimulates; insulin secretion (in words) [1]: stimulates the secretion of insulin

**Q.** Which results are given for `Nc1ccccc1C(=O)CC(N)C(=O)O` (stereo not drawn) [Kynurenine]?
**A.** inhibition at 1 µM (hepatocytes; Rattus norvegicus, Hepatocyte, 1 μM): 2%; inhibition at 10 µM (hepatocytes; Rattus norvegicus, Hepatocyte): 4%; inhibition at 100 µM (hepatocytes; Rattus norvegicus, Hepatocyte): 25%; inhibition at 1000 µM (hepatocytes; Rattus norvegicus, Hepatocyte, 1000 μM): 78%; inhibition of hepatic glucose production in vitro (in words) (hepatocytes): powerful inhibitors of hepatic glucose production in vitro; glucagon secretion (in words) [1]: stimulated; insulin secretion (in words) [1]: stimulated

**Q.** With `COc1ccc2[nH]c(C(=O)O)cc2c1` [MICA, 5-methoxyindole-2-carboxylic acid] as the compound, how does the inhibition at 10 µM (hepatocytes; Rattus norvegicus, Hepatocyte) read?
**A.** 67%

**Q.** Which inhibition at 10 µM (hepatocytes; Rattus norvegicus, Hepatocyte) does the source give for `N[C@@H](Cc1c[nH]c2ccccc12)C(=O)O` [Tryptophan] here?
**A.** 12%

**Q.** What about the inhibition at 100 µM (hepatocytes; Rattus norvegicus, Hepatocyte) of the same compound?
**A.** 81%

**Q.** And the “inhibition of hepatic glucose production in vitro (in words)” value (hepatocytes)?
**A.** powerful inhibitors of hepatic glucose production in vitro

**Q.** What about the “glucagon secretion (in words)” value [1] of the same compound?
**A.** stimulates glucagon secretion in a glucose-dependent manner

**Q.** And the “insulin secretion (in words)” value [1]?
**A.** stimulates insulin secretion in a glucose-dependent manner
